US10738040B2, “Compounds, compositions, and methods for increasing CFTR activity” (Proteostasis Therapeutics, Inc., priority 2014, dated 2020)

How the values were obtained:
ΔF508-CFTR [1] = molecular target: T1, ΔF508-CFTR (Homo sapiens, UniProt P13569, DEL508-508); test: hBE equivalent current (Ieq) assay; assay type: cell-based; details: compound at 10 uM and VX-809 at 1 uM, relative to VX-809 (1 uM); primary lung epithelial cells homozygous for ΔF508, 24 hours treatment; AUC of equivalent chloride current
T1 construct: Primary lung epithelial cells homozygous for the Cystic Fibrosis-causing ΔF508 mutation were differentiated; endogenous in cells; host or cells: primary human lung (bronchial) epithelial cells homozygous for ΔF508, differentiated at air-liquid interface
T1 sequence (P13569 with tags, fused parts or gaps DEL508-508): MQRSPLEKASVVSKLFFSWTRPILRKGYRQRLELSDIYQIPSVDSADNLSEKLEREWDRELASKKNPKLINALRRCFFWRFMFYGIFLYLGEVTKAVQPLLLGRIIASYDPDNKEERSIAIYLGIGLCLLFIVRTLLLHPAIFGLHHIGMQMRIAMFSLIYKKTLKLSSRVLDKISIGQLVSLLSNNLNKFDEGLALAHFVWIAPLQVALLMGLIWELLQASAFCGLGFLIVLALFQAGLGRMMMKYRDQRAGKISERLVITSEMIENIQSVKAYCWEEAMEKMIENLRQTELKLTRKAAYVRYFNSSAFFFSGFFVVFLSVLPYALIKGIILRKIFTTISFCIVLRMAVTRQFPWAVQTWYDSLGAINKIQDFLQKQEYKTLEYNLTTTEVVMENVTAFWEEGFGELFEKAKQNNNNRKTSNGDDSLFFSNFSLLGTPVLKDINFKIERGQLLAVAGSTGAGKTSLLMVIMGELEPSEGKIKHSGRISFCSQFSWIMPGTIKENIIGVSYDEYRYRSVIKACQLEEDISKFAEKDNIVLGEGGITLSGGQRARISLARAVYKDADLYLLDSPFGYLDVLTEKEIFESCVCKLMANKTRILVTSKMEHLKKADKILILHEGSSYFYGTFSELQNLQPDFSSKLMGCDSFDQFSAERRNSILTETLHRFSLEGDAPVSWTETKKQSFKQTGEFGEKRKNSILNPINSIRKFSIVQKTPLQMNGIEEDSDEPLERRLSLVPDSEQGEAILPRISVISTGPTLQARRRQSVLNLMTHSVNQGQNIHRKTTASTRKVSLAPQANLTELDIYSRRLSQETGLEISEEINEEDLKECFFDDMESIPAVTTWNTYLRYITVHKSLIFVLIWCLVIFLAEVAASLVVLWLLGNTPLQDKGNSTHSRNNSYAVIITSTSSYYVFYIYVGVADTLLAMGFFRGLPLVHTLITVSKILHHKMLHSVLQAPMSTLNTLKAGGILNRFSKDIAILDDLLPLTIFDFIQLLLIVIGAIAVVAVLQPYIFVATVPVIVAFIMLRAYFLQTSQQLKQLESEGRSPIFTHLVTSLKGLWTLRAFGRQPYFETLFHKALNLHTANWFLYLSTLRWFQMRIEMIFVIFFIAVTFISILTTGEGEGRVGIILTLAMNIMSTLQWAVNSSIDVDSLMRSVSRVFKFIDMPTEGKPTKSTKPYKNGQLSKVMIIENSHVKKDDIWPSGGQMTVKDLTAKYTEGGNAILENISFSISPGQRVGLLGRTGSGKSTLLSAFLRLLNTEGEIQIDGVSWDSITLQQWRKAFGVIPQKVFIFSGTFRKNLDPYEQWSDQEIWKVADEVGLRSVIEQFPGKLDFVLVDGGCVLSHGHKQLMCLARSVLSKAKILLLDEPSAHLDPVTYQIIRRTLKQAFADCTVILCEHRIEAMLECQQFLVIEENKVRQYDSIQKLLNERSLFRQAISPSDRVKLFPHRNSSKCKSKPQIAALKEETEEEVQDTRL
Method: ii. hBE Equivalent Current (Ieq) Assay
Primary lung epithelial cells homozygous for the Cystic Fibrosis-causing ΔF508 mutation were differentiated for a minimum of 4 weeks in an air-liquid interface on Costar 24 well HTS filter plates prior to the equivalent current (Ieq) measurements. Cells were apically mucus-washed for 30 minutes 24 h prior to treatment with compounds. The basolateral media was removed and replaced with media containing the compound of interest diluted to its final concentration from DMSO stocks. Treated cells were incubated at 37° C. and 5% CO2 for 24 hours. At the end of the treatment period, the media was changed to the Ieq experimental solution for 30 minutes before the experiment and plates are maintained in a CO2-free incubator during this period. The plates containing the cells were then placed in pre-warmed heating blocks at 36° ° C.±0.5 for 15 minutes before measurements are taken. The transepithelial voltage (VT) and conductance (GT) were measured using a custom 24 channel current clamp (TECC-24) with 24 well electrode manifold. The Ieq assay measurements were made following additions with standardized time periods: • 1. The baseline VT and GT values were measured for approximately 20 minutes. • 2. Benzamil was added to block ENaC for 15 minutes. • 3. Forskolin plus VX-770 (ivacaftor) were added to maximally activate ΔF508-CFTR for 27 minutes. • 4. Bumetanide was added to inhibit the NaK2Cl cotransporter and shut-off secretion of chloride.
The activity data captured was the area under the curve (AUC) for the traces of the equivalent chloride current. The AUC was collected from the time of the forskolin/VX-770 addition until the inhibition by bumetanide addition. Correction in response to compound treatment was scored as the increase in the AUC for compound-treated samples over that of vehicle-treated samples.

ΔF508-CFTR [2] = molecular target: T1, ΔF508-CFTR; test: Ussing measurements (short-circuit current, CFTRinh-172-inhibitable); assay type: cell-based; details: compound at 10 uM and VX-809 at 3 uM, relative to VX-809 (3 uM); hBEs homozygous for ΔF508, 24 hours treatment; CFTRinh-172-inhibitable current
Method: As discussed above, Ussing measurements can be used to measure CFTR activity. In this method, primary lung epithelial cells (hBEs) homozygous for the Cystic Fibrosis-causing ΔF508 mutation were differentiated for a minimum of 4 weeks in an air-liquid interface on SnapWell filter plates prior to the Ussing measurements. Cells were apically mucus-washed for 30 minutes prior to treatment with compounds. The basolateral media was removed and replaced with media containing the compound of interest diluted to its final concentration from DMSO stocks. Treated cells were incubated at 37° C. and 5% CO2 for 24 hours. At the end of the treatment period, the cells on filters were transferred to the Ussing chamber and equilibrated for 30 minutes. The short-circuit current was measured in voltage clamp-mode (Vhold=0 mV), and the entire assay was conducted at a temperature of 36° C.-36.5° C. Once the voltages stabilized, the chambers were clamped, and data was recorded by pulse readings every 5 seconds. Following baseline current stabilization, the following additions were applied and the changes in current and resistance of the cells was monitored: • 1. Benzamil to the apical chamber to inhibit ENaC sodium channel. • 2. Forskolin to both chambers to activate ΔF508-CFTR by phosphorylation. • 3. Genistein to both chambers to potentiate ΔF508-CFTR channel opening. • 4. CFTRinh-172 to the apical chamber to inhibit ΔF508-CFTR Cl— conductance. The inhibitable current (that current that is blocked by CFTRinh-172) is measured as the specific activity of the ΔF508-CFTR channel, and increases in response to compound in this activity over that observed in vehicle-treated samples are identified as the correction of ΔF508-CFTR function imparted by the compound tested.

| Compound | Ieq (% VX-809) (ΔF508-CFTR [1]) | Ussing (% VX-809) (ΔF508-CFTR [2]) |
| --- | --- | --- |
| C[C@H](O)c1cn([C@H]2C[C@H](NC(=O)c3cc(-c4ccccc4)on3)C2)nn1 | ** (activity ≥200% of VX-809 (1 uM) with compound at 10 uM and VX-809 at 1 uM) | – |
| C[C@@H](O)c1cn([C@H]2C[C@H](NC(=O)c3cc(-c4ccccc4)on3)C2)nn1 | ** (activity ≥200% of VX-809 (1 uM) with compound at 10 uM and VX-809 at 1 uM) | – |
| C[C@H](O)c1nnc(C[C@H]2C[C@@H](NC(=O)c3cc(-c4ccccc4)on3)C2)s1 | ** (activity ≥200% of VX-809 (1 uM) with compound at 10 uM and VX-809 at 1 uM) | – |
| C[C@@H](O)c1nnc(C[C@H]2C[C@@H](NC(=O)c3cc(-c4ccccc4)on3)C2)s1 | ** (activity ≥200% of VX-809 (1 uM) with compound at 10 uM and VX-809 at 1 uM) | – |
| O=C(N[C@H]1C[C@@H](c2nnc(CO)o2)C1)c1cc(-c2ccccc2)on1 | ** (activity ≥200% of VX-809 (1 uM) with compound at 10 uM and VX-809 at 1 uM) | – |
| O=C(N[C@H]1C[C@@H](c2nnc([C@@H](O)CO)s2)C1)c1cc(-c2ccccc2)on1 | ** (activity ≥200% of VX-809 (1 uM) with compound at 10 uM and VX-809 at 1 uM) | – |
| O=C(N[C@H]1C[C@H](n2cc(CO)cn2)C1)c1cc(-c2ccccc2)on1 | * (activity 100-200% of VX-809 (1 uM) with compound at 10 uM and VX-809 at 1 uM) | – |
| C[C@@H](O)c1cnn([C@H]2C[C@H](NC(=O)c3cc(-c4ccccc4)on3)C2)c1 | ** (activity ≥200% of VX-809 (1 uM) with compound at 10 uM and VX-809 at 1 uM) | – |
| C[C@H](O)c1cnn([C@H]2C[C@H](NC(=O)c3cc(-c4ccccc4)on3)C2)c1 | ** (activity ≥200% of VX-809 (1 uM) with compound at 10 uM and VX-809 at 1 uM) | – |
| O=C(NC1CC(n2cc(CO)cn2)C1)c1cc(-c2ccccc2)on1 (stereo not drawn) | ** (activity ≥200% of VX-809 (1 uM) with compound at 10 uM and VX-809 at 1 uM) | – |
| O=C(N[C@H]1C[C@H](n2ccc(CO)n2)C1)c1cc(-c2ccccc2)on1 | ** (activity ≥200% of VX-809 (1 uM) with compound at 10 uM and VX-809 at 1 uM) | – |
| C[C@@H](O)c1ccn([C@H]2C[C@H](NC(=O)c3cc(-c4ccccc4)on3)C2)n1 | ** (activity ≥200% of VX-809 (1 uM) with compound at 10 uM and VX-809 at 1 uM) | – |
| C[C@H](O)c1ccn([C@H]2C[C@H](NC(=O)c3cc(-c4ccccc4)on3)C2)n1 | ** (activity ≥200% of VX-809 (1 uM) with compound at 10 uM and VX-809 at 1 uM) | – |
| O=C(NC1CC(n2ccc(CO)n2)C1)c1cc(-c2ccccc2)on1 (stereo not drawn) | ** (activity ≥200% of VX-809 (1 uM) with compound at 10 uM and VX-809 at 1 uM) | – |
| O=C(N[C@H]1C[C@@H](c2nc(CO)no2)C1)c1cc(-c2ccccc2)on1 | ** (activity ≥200% of VX-809 (1 uM) with compound at 10 uM and VX-809 at 1 uM) | – |
| C[C@H](O)c1noc([C@H]2C[C@@H](NC(=O)c3cc(-c4ccccc4)on3)C2)n1 | * (activity 100-200% of VX-809 (1 uM) with compound at 10 uM and VX-809 at 1 uM) | – |
| C[C@@H](O)c1noc([C@H]2C[C@@H](NC(=O)c3cc(-c4ccccc4)on3)C2)n1 | * (activity 100-200% of VX-809 (1 uM) with compound at 10 uM and VX-809 at 1 uM) | – |
| C[C@@H](O)c1noc(C2CC(NC(=O)c3cc(-c4ccccc4)on3)C2)n1 (stereo partly drawn) | ** (activity ≥200% of VX-809 (1 uM) with compound at 10 uM and VX-809 at 1 uM) | – |
| C[C@H](O)c1noc(C2CC(NC(=O)c3cc(-c4ccccc4)on3)C2)n1 (stereo partly drawn) | ** (activity ≥200% of VX-809 (1 uM) with compound at 10 uM and VX-809 at 1 uM) | – |
| C[C@H](O)c1nc([C@H]2C[C@@H](NC(=O)c3cc(-c4ccccc4)on3)C2)no1 | * (activity 100-200% of VX-809 (1 uM) with compound at 10 uM and VX-809 at 1 uM) | – |
| C[C@@H](O)c1nc([C@H]2C[C@@H](NC(=O)c3cc(-c4ccccc4)on3)C2)no1 | * (activity 100-200% of VX-809 (1 uM) with compound at 10 uM and VX-809 at 1 uM) | – |

| Compound | Ieq (% VX-809) (ΔF508-CFTR [1]) | Ussing (% VX-809) (ΔF508-CFTR [2]) |
| --- | --- | --- |
| O=C(N[C@H]1C[C@H](CCO)C1)c1cc(-c2ccccc2)on1 | ** (activity ≥200% of VX-809 (1 uM) with compound at 10 uM and VX-809 at 1 uM) | – |
| O=C(N[C@H]1C[C@@H](CCO)C1)c1cc(-c2ccccc2)on1 | ** (activity ≥200% of VX-809 (1 uM) with compound at 10 uM and VX-809 at 1 uM) | – |
| CS(=O)(=O)NC[C@H]1C[C@@H](NC(=O)c2cc(-c3ccccc3)on2)C1 | * (activity 100-200% of VX-809 (1 uM) with compound at 10 uM and VX-809 at 1 uM) | – |
| C[C@@H](O)c1nnc(C[C@H]2C[C@@H](NC(=O)c3cc(-c4ccccc4)on3)C2)o1 | ** (activity ≥200% of VX-809 (1 uM) with compound at 10 uM and VX-809 at 1 uM) | – |
| C[C@H](O)c1nnc(C[C@H]2C[C@H](NC(=O)c3cc(-c4ccccc4)on3)C2)o1 | ** (activity ≥200% of VX-809 (1 uM) with compound at 10 uM and VX-809 at 1 uM) | – |
| C[C@H](O)c1nnc(CC2CC(NC(=O)c3cc(-c4ccccc4)on3)C2)o1 (stereo partly drawn) | * (activity 100-200% of VX-809 (1 uM) with compound at 10 uM and VX-809 at 1 uM) | – |
| C[C@@H](O)c1nnc(C2CC(NC(=O)c3cc(-c4ccc(F)cc4)on3)C2)o1 (stereo partly drawn) | – | ## (activity ≥200% of VX-809 (3 uM) with compound at 10 uM and VX-809 at 3 uM) |
| C[C@@H](O)c1nnc(C2CC(NC(=O)c3cc(-c4ccccc4F)on3)C2)o1 (stereo partly drawn) | * (activity 100-200% of VX-809 (1 uM) with compound at 10 uM and VX-809 at 1 uM) | – |
| C[C@@H](O)c1nnc([C@H]2C[C@@H](NC(=O)c3cc(-c4ccc(F)c(F)c4)on3)C2)o1 | * (activity 100-200% of VX-809 (1 uM) with compound at 10 uM and VX-809 at 1 uM) | – |
| C[C@@H](O)c1nnc([C@H]2C[C@@H](NC(=O)c3cc(-c4ccc(F)cc4F)on3)C2)o1 | * (activity 100-200% of VX-809 (1 uM) with compound at 10 uM and VX-809 at 1 uM) | – |
| C[C@@H](O)c1nnc([C@H]2C[C@@H](NC(=O)c3cc(-c4ccc(O)cc4)on3)C2)o1 | * (activity 100-200% of VX-809 (1 uM) with compound at 10 uM and VX-809 at 1 uM) | – |
| C[C@@H](O)c1nnc([C@H]2C[C@@H](NC(=O)c3cc(-c4ccc(O)c(O)c4)on3)C2)o1 | * (activity 100-200% of VX-809 (1 uM) with compound at 10 uM and VX-809 at 1 uM) | – |
| C[C@@H](O)c1nnc([C@H]2C[C@@H](NC(=O)c3cc(-c4cccc(O)c4)on3)C2)o1 | * (activity 100-200% of VX-809 (1 uM) with compound at 10 uM and VX-809 at 1 uM) | – |
| C[C@@H](O)c1nnc([C@H]2C[C@@H](NC(=O)c3cc(-c4cccc(F)c4)on3)C2)o1 | * (activity 100-200% of VX-809 (1 uM) with compound at 10 uM and VX-809 at 1 uM) | – |
| CC(=O)O[C@H](C)c1nnc([C@H]2C[C@H](NC(=O)c3cc(-c4ccccc4)on3)C2)o1 | ** (activity ≥200% of VX-809 (1 uM) with compound at 10 uM and VX-809 at 1 uM) | – |
| C[C@@H](OC(=O)c1ccccc1)c1nnc([C@H]2C[C@H](NC(=O)c3cc(-c4ccccc4)on3)C2)o1 | * (activity 100-200% of VX-809 (1 uM) with compound at 10 uM and VX-809 at 1 uM) | – |
| O=C(N[C@H]1C[C@H](c2nnc(C3CCC3)o2)C1)c1cc(-c2ccccc2)on1 | ** (activity ≥200% of VX-809 (1 uM) with compound at 10 uM and VX-809 at 1 uM) | – |
| CC(C)CO[C@H](C)c1nnc([C@H]2C[C@H](NC(=O)c3cc(-c4ccccc4)on3)C2)o1 | * (activity 100-200% of VX-809 (1 uM) with compound at 10 uM and VX-809 at 1 uM) | – |
| C[C@@H](O)c1nnc(C2CCCC(NC(=O)c3cc(-c4ccccc4)on3)C2)o1 (stereo partly drawn) | * (activity 100-200% of VX-809 (1 uM) with compound at 10 uM and VX-809 at 1 uM) | – |
| O=C(N[C@H]1CC[C@@H](c2nnc(CO)o2)CC1)c1cc(-c2ccccc2)on1 | * (activity 100-200% of VX-809 (1 uM) with compound at 10 uM and VX-809 at 1 uM) | – |
| O=C(NC1CCCC(n2cc(CO)nn2)C1)c1cc(-c2ccccc2)on1 (stereo not drawn) | * (activity 100-200% of VX-809 (1 uM) with compound at 10 uM and VX-809 at 1 uM) | – |
